System: ABCA-1 gene
Test: compounds tested and found to elevate cellular expression of the ABCA-1 gene (Examples 1-6; test not named)
Type: cell-based
Description: Activity testing is conducted as described in those patents and patent applications referenced above, and in the Examples below, and by methods apparent to one skilled in the art.

| Compound | cellular expression of the ABCA-1 gene |
| --- | --- |
| O=C(NCCc1ccccc1F)c1ccc2oc(N3CCCN(C(=O)Cc4ccc(C(F)(F)F)cc4)CC3)nc2c1 [N-[2-(2-fluorophenyl)ethyl][2-(4-{2-[4-(trifluoromethyl)phenyl]acetyl}(1,4-diazaperhydroepinyl))benzoxazol-5-yl]carboxamide] | elevate cellular expression of the ABCA-1 gene |
| CCCCCCNC(=O)c1cnn(-c2nc(-c3ccc(Br)cc3)cs2)c1CC [{1-[4-(4-bromophenyl)(1,3-thiazol-2-yl)]-5-ethylpyrazol-4-yl}-N-hexylcarboxamide] | elevate cellular expression of the ABCA-1 gene |
| CC(C)c1ccc(C(=O)NC2=NCCS2)cc1 [[4-(methylethyl)phenyl]-N-(1,3-thiazolin-2-yl)carboxamide] | elevate cellular expression of the ABCA-1 gene |
| CCc1c(C(=O)NCc2ccco2)cnn1-c1nc(-c2ccc(C)cc2)cs1 [5-ethyl-1-(4-p-tolyl-thiazol-2-yl)-1H-pyrazole-4-carboxylic acid (furan-2-ylmethyl)-amide] | elevate cellular expression of the ABCA-1 gene |
| O=C(Nc1ccc(Cl)cc1)c1ccc(Cl)cc1 [(4-chlorophenyl)-N-(4-chlorophenyl)carboxamide] | elevate cellular expression of the ABCA-1 gene |
| O=C(Nc1nc(-c2ccc3ccccc3c2)cs1)c1ccc(F)cc1F [(2,4-difluorophenyl)-N-(4-(2-naphthyl)(1,3-thiazol-2-yl))carboxamide] | elevate cellular expression of the ABCA-1 gene |
| O=C(Nc1nc(-c2ccc(Cl)cc2)cs1)C1CCCC1 [N-[4-(4-chlorophenyl)(1,3-thiazol-2-yl)]cyclopentylcarboxamide] | elevate cellular expression of the ABCA-1 gene |
| Cc1cc(C(=O)c2cc3ccccc3o2)ccc1Cl [benzo[d]furan-2-yl 4-chloro-3-methylphenyl ketone] | elevate cellular expression of the ABCA-1 gene |
| Cc1cc(C)c2oc(-c3ccc(NC(=O)c4ccccc4Br)cc3)nc2c1 [N-[4-(5,7-dimethylbenzoxazol-2-yl)phenyl](2-bromophenyl)carboxamide] | elevate cellular expression of the ABCA-1 gene |
| N#Cc1cccc(C(=O)Nc2nc3c(Cl)cccc3s2)c1 [N-(4-chlorobenzothiazol-2-yl)(3-cyanophenyl)carboxamide] | elevate cellular expression of the ABCA-1 gene |
| Cc1c(C(=O)NC2CC2)cnn1-c1nc(C(C)(C)C)cs1 [{1-[4-(tert-butyl)(1,3-thiazol-2-yl)]-5-methylpyrazol-4-yl}-N-cyclopropylcarboxamide] | elevate cellular expression of the ABCA-1 gene |
| O=C(NC1=NC(C(=O)O)CS1)c1ccc(Cl)c(Cl)c1 (stereo not drawn) [2-[(3,4-dichlorophenyl)carbonylamino]-1,3-thiazoline-4-carboxylic acid] | elevate cellular expression of the ABCA-1 gene |
| O=C(Nc1nc2ccccc2s1)c1cnn(Cc2ccccc2)c1 [N-benzothiazol-2-yl[1-benzylpyrazol-4-yl]carboxamide] | elevate cellular expression of the ABCA-1 gene |
| N-(4-naphthyl(1,3-thiazol-2-yl))[3-(trifluoromethyl)phenyl]carboxamide | elevate cellular expression of the ABCA-1 gene |
| CC(C)(C)c1cc(NC(=O)C(C)(C)S(=O)(=O)c2ccc(C(F)(F)F)cc2)no1 [N-[5-(tert-butyl)isoxazol-3-yl]-2-methyl-2-{[4-(trifluoromethyl)phenyl]sulfonyl}-propanamide] | elevate cellular expression of the ABCA-1 gene |
| O=C(Nc1nc(-c2ccc(Cl)cc2)cs1)c1ccc(F)cc1F [(2,4-difluorophenyl)-N-[4-(4-chlorophenyl)(1,3-thiazol-2-yl)]carboxamide] | elevate cellular expression of the ABCA-1 gene |
| O=C(Nc1nc(-c2ccc3ccccc3c2)cs1)c1cccc(C(F)(F)F)c1 [N-(4-(2-naphthyl)(1,3-thiazol-2-yl))[3-(trifluoromethyl)phenyl]carboxamide] | elevate cellular expression of the ABCA-1 gene |
| O=C(Nc1nc2ccccc2s1)c1cnn(-c2ccc(Cl)cc2)c1C(F)(F)F [N-benzothiazol-2-yl[1-(4-chlorophenyl)-5-(trifluoromethyl)pyrazol-4-yl]carboxamide] | elevate cellular expression of the ABCA-1 gene |
| O=C(Nc1nc(-c2ccc(Cl)cc2)cs1)c1ccc(C(F)(F)F)cc1F [N-[4-(4-chlorophenyl)(1,3-thiazol-2-yl)][2-fluoro-4-(trifluoromethyl)phenyl]-carboxamide] | elevate cellular expression of the ABCA-1 gene |
| CCn1c2ccccc2c2cc(NC(=O)c3ccc(C)cc3)ccc21 [N-(9-ethylcarbazol-3-yl)(4-methylphenyl)carboxamide] | elevate cellular expression of the ABCA-1 gene |
| CCc1ccc(C(=O)N(CCc2ccccn2)Cc2ccccc2[N+](=O)[O-])cc1 [(4-ethylphenyl)-N-[(2-nitrophenyl)methyl]-N-(2-(2-pyridyl)ethyl)carboxamide] | elevate cellular expression of the ABCA-1 gene |
| O=C(Nc1nc(-c2ccc(Cl)cc2)cs1)c1cccc(C(F)(F)F)c1 [N-[4-(4-chlorophenyl)(1,3-thiazol-2-yl)][3-(trifluoromethyl)phenyl]carboxamide] | elevate cellular expression of the ABCA-1 gene |
| O=C(Nc1nc2ccccc2s1)c1ccno1 [N-benzothiazol-2-ylisoxazol-5-ylcarboxamide] | elevate cellular expression of the ABCA-1 gene |
| O=C(Nc1ccc2c(c1)CCC2)c1cccs1 [N-indan-5-yl-2-thienylcarboxamide] | elevate cellular expression of the ABCA-1 gene |
| O=C(NCCc1ccccn1)c1ccccc1Cl [(2-chlorophenyl)-N-(2-(2-pyridyl)ethyl)carboxamide] | elevate cellular expression of the ABCA-1 gene |
| Nc1ccccc1-c1nc(-c2ccc(Cl)cc2)no1 [2-[3-(4-chlorophenyl)-1,2,4-oxadiazol-5-yl]phenylamine] | elevate cellular expression of the ABCA-1 gene |
| CCN(CCCN(CC)c1nc2cc(C(=O)Nc3ccc(OC)cc3)ccc2o1)C(=O)c1cccc(F)c1C [[2-(ethyl{3-[N-ethyl(3-fluoro-2-methylphenyl)carbonylamino]propyl}amino)benzoxazol-5-yl]-N-(4-methoxyphenyl)carboxamide] | elevate cellular expression of the ABCA-1 gene |
| CCOC(=O)CNC(=O)N(CCN(C)C)C(C)c1nc2ccccc2c(=O)n1-c1ccc2ccccc2c1 (stereo not drawn) [ethyl 2-({N-[2-(dimethylamino)ethyl]-N-[(3-(2-naphthyl)-4-oxo(3-hydroquinazolin-2-yl))ethyl]carbamoyl}amino)acetate] | elevate cellular expression of the ABCA-1 gene |
| O=C(Nc1ccc2c(c1)OCCO2)NC1CCCCC1 [(2H,3H-benzo[e]1,4-dioxin-6-ylamino)-N-cyclohexylcarboxamide] | elevate cellular expression of the ABCA-1 gene |
| O=C(Nc1ccc(Br)cc1)c1sc2ccccc2c1Cl [(3-chlorobenzo[b]thiophen-2-yl)-N-(4-bromophenyl)carboxamide] | elevate cellular expression of the ABCA-1 gene |

Source: US6900219B2, “ABCA-1 elevating compounds” (CV Therapeutics, Inc., priority 2002, dated 2005)
